From US11111238B2, “Coumarin derivatives, processes for their preparation and uses thereof for the treatment of cancer” (Lead Discovery Center GmbH, priority 2017, dated 2021)

Biological target: mitochondrial RNA-polymerase (POLRMT) (Mus musculus, UniProt Q8BKF1)
Assay: Homogeneous TR-FRET assay for mitochondrial transcription activity
Format: biochemical
Conditions: homogeneous TR-FRET assay according to Example 4; activity class
Source text: The TR-FRET assay was basically conducted as described in WO2016/193,231A1, especially as described in example 1 (hereby incorporated by reference). With respect to the background of the mitochondrial transcription it is referred to Falkenberg et al. (2002) and Posse et al. (Posse et al., 2015). The method monitors the activity of mitochondrial RNA-polymerase via detection of the formation of its product, a 407 bp long RNA sequence. Detection of the product is facilitated by hybridization of two DNA-oligonucleotide probes to specific and adjacent sequences within the RNA product sequence. Upon annealing of the probes, two fluorophores that are coupled directly to an acceptor nucleotide probe (ATT0647, 5′) or introduced via a coupled streptavidin interacting with a biotinylated donor nucleotide probe on the other side (Europium cryptate, 3′) are brought into sufficient proximity to serve as a fluorescence-donor-acceptor pair as generally described in Walters and Namchuk (2003). Thus, a FRET signal at 665 nm is generated upon excitation at 340 nm.
Briefly, the protocol described here was applied for screening and activity determination in a low-volume 384-well microtiter plate with non-binding surface. For high-throughput application in the 1536-well microtiter plate format, volumes of the reagent mixes were adjusted, maintaining the volumetric ratio. Proteins POLRMT (NM_172551.3), TFAM (NM_009360.4) and TFB2 M (NM_008249.4) were diluted from their stocks to working concentrations of 150 nM, 1.8 μM and 330 nM respectively, in a dilution buffer containing 100 mM Tris-HCl pH 8.0, 200 mM NaCl, 10% (v/v) glycerole, 2 mM glutathione (GSH), 0.5 mM EDTA and 0.1 mg/mL BSA. Protein dilutions and template DNA, comprising a pUC18 plasmid encoding the mitochondrial light strand promoter, restriction linearized proximal to the promoter 3′-end (pUC-LSP), were mixed at the twofold final assay-concentration in a reaction buffer, containing 10 mM Tris-HCl pH 7.5, 10 mM MgCl2, 40 mM NaCl, 2 mM GSH, 0.01% (w/v) Tween-20 and 0.1 mg/mL BSA.
5 μL of this mix were dispensed, depending on the chosen microtiter plate format, using multi-channel pipettes or a Multidrop® dispenser (Thermo Fisher Scientific, Waltham Mass.) into the wells of a microtiter plate and incubated at room temperature (RT) for 10 min. Chemical compounds under scrutiny in the assay were applied using contact-free acoustic droplet-dispensing (Echo520® Labcyte Inc., Sunnyvale Calif.) from 10 mM compound stocks in 100% DMSO, to a final concentration of 10 μM or in serial dilution series of the required concentration range. Equal amounts of DMSO without any compound were added to positive control samples, followed by an incubation step at RT for 10 min.
The enzymatic reaction was started by the addition of 5 μL of a mix of […] in reaction buffer to a final concentration of 500 μM each. No nucleotide mix was added to negative control samples. The content of the wells was mixed using a VarioTeleshaker™ (Thermo Fisher Scientific, Waltham Mass.) at 1,500 rpm for 45 sec after which the microtiter plate was centrifuged at 500×g for 1 min. The samples were incubated for 2 h at RT with humidity control to avoid evaporation. The detection reagents were prepared in a buffer that was composed, such that the enzymatic reaction was terminated due to chelating of Mg-ions and increased ionic strength, containing 50 mM Tris-HCl pH 7.5, 700 mM NaCl, 20 mM EDTA, and 0.01% (w/v) Tween-20. Importantly Eu-cryptate-coupled streptavidin had to be pre-incubated with a 100-fold molar excess of a random sequence oligonucleotide for 10 min at RT in the dark to block unspecific binding of single stranded RNA to the protein. Subsequently, the blocked streptavidin(—Eu) was mixed with the DNA-probes on ice and kept away from light until use. […]

Chain of mitochondrial RNA-polymerase (POLRMT) (Q8BKF1 42-1207): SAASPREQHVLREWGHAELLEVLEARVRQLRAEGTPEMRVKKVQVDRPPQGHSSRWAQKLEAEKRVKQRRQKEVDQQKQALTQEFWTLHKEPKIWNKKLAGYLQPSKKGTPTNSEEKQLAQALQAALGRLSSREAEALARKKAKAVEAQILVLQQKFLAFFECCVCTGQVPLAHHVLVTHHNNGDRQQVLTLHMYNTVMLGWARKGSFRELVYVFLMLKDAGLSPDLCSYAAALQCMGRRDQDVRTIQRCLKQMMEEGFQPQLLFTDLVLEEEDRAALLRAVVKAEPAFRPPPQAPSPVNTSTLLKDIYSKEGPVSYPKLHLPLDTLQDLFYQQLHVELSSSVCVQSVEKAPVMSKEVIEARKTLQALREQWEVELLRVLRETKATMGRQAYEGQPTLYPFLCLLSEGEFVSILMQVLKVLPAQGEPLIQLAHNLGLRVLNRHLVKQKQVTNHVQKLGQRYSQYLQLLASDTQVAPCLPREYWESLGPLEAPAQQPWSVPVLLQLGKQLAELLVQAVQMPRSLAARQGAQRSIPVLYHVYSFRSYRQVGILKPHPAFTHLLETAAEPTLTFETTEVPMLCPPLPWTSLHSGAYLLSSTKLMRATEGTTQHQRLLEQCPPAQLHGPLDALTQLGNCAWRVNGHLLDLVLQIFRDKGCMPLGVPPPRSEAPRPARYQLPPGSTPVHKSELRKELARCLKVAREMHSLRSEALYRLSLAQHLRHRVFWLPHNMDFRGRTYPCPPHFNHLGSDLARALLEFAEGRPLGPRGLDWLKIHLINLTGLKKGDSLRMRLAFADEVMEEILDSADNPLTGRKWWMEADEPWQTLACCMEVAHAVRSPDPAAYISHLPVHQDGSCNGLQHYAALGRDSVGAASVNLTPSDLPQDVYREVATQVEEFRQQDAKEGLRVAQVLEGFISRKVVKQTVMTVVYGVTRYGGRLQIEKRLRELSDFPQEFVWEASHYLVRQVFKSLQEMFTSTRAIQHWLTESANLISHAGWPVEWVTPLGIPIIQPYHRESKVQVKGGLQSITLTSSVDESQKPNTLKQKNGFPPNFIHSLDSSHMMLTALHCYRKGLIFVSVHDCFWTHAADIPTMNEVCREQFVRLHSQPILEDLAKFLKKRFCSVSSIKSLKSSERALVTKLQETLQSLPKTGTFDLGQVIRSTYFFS

IC50 [nM] | SMILES
20 to 100 | CCOC(=O)CC1CCCN(C(=O)C(C)Oc2ccc3c(-c4ccccc4C)cc(=O)oc3c2)C1 (stereo not shown) [Compound 87, ethyl 2-[1-[2-[4-(o-tolyl)-2-oxo-chromen-7-yl]oxypropanoyl]-3-piperidyl]acetate]
< 20 | CCOC(=O)[C@H]1CCCN(C(=O)C(C)Oc2ccc3c(-c4ccccc4Cl)cc(=O)oc3c2)C1 (stereo partly drawn) [Compound 16, ethyl (3S)-1-[2-[4-(2-chlorophenyl)-2-oxo-chromen-7-yl]oxypropanoyl]piperidine-3-carboxylate]
< 20 | C[C@@H](Oc1ccc2c(-c3ccccc3Cl)cc(=O)oc2c1)C(=O)N1CCC[C@@H](CC(=O)O)C1 [Compound 102, 2-[(3S)-1-[(2R)-2-[4-(2-chlorophenyl)-2-oxo-chromen-7-yl]oxypropanoyl]-3-piperidyl]acetic acid]
< 20 | C[C@@H](Oc1ccc2c(-c3ccc(F)cc3Cl)cc(=O)oc2c1)C(=O)N1CCC[C@H](C(N)=O)C1 [Compound 132, (3S)-1-[(2R)-2-[4-(2-chloro-4-fluoro-phenyl)-2-oxo-chromen-7-yl]oxypropanoyl]piperidine-3-carboxamide]
20 to 100 | Cc1ccccc1-c1cc(=O)oc2cc(OC(C)C(=O)N3CCCC(S(C)(=N)=O)C3)ccc12 (stereo not shown) [Compound 73, 7-[1-methyl-2-[3-(methylsulfonimidoyl)-1-piperidyl]-2-oxo-ethoxy]-4-(o-tolyl)chromen-2-one]
< 20 | Cc1ccccc1-c1cc(=O)oc2cc(OC(C)C(=O)N3CCC[C@H](C(=O)O)C3)ccc12 (stereo partly drawn) [Compound 3, (3S)-1-[2-[4-(o-tolyl)-2-oxo-chromen-7-yl]oxypropanoyl]piperidine-3-carboxylic acid]
20 to 100 | CC(Oc1ccc2c(-c3cccc(F)c3Cl)cc(=O)oc2c1)C(=O)NC1CC1 (stereo not shown) [Compound 61, 2-[4-(2-chloro-3-fluoro-phenyl)-2-oxo-chromen-7-yl]oxy-N-cyclopropyl-propanamide]
20 to 100 | C[C@@H](Oc1ccc2c(-c3ccccc3C#N)cc(=O)oc2c1)C(=O)N1CCC[C@H](C(=O)O)C1 [Compound 162, (3S)-1-[(2R)-2-[4-(2-cyanophenyl)-2-oxo-chromen-7-yl]oxypropanoyl]piperidine-3-carboxylic acid]
< 20 | Cc1ccccc1-c1cc(=O)oc2cc(O[C@H](C)C(=O)OC(C)C)ccc12 [Compound 55, (R)-isopropyl 2-((2-oxo-4-(o-tolyl)-2H-chromen-7-yl)oxy)propanoate]
100 to 1000 | CC(C)(Oc1ccc2c(-c3ccccc3Cl)cc(=O)oc2c1)C(=O)O [Compound 112, 2-[4-(2-chlorophenyl)-2-oxo-chromen-7-yl]oxy-2-methyl-propanoic acid]
100 to 1000 | CCOC(=O)C(C)(C)Oc1ccc2c(-c3ccccc3Cl)cc(=O)oc2c1 [Compound 113, ethyl 2-[4-(2-chlorophenyl)-2-oxo-chromen-7-yl]oxy-2-methyl-propanoate]
20 to 100 | C[C@@H](Oc1ccc2c(-c3ccc(F)cc3Cl)cc(=O)oc2c1)C(=O)N1CCC(C(=O)O)CC1 [Compound 131, 1-[(2R)-2-[4-(2-chloro-4-fluoro-phenyl)-2-oxo-chromen-7-yl]oxypropanoyl]piperidine-4-carboxylic acid]
< 20 | CC(Oc1ccc2c(-c3ccccc3Cl)cc(=O)oc2c1)C(=O)N1CCCC1 (stereo not shown) [Compound 13, 4-(2-chlorophenyl)-7-(1-methyl-2-oxo-2-pyrrolidin-1-yl-ethoxy)chromen-2-one]

The next lines start with the compound.

SMILES | IC50 [nM]
CC(Oc1ccc2c(-c3ccccc3Cl)cc(=O)oc2c1)C(=O)N1CCCC(C#N)C1 (stereo not shown) [Compound 48, 1-[2-[4-(2-chlorophenyl)-2-oxo-chromen-7-yl]oxypropanoyl]piperidine-3-carbonitrile] | < 20
CC(Oc1ccc2c(-c3ccc(F)cc3Cl)cc(=O)oc2c1)C(=O)NC1CC1 (stereo not shown) [Compound 90, 2-[4-(2-chloro-4-fluoro-phenyl)-2-oxo-chromen-7-yl]oxy-N-cyclopropyl-propanamide] | 20 to 100
C[C@@H](Oc1ccc2c(-c3ccc(F)cc3Cl)cc(=O)oc2c1)C(=O)Nc1ccc(CO)cc1 [Compound 130, (2R)-2-[4-(2-chloro-4-fluoro-phenyl)-2-oxo-chromen-7-yl]oxy-N-[4-(hydroxymethyl)phenyl]propanamide] | < 20
C[C@@H](Oc1ccc2c(-c3ccccc3Cl)cc(=O)oc2c1)C(=O)N(C)C [Compound 45, (2R)-2-[4-(2-chlorophenyl)-2-oxo-chromen-7-yl]oxy-N,N-dimethyl-propanamide] | < 20
CC(Oc1ccc2c(-c3ccccc3Cl)cc(=O)oc2c1)C(=O)N1CCC[C@H](C(=O)N(C)C)C1 (stereo partly drawn) [Compound 76, (3S)-1-[2-[4-(2-chlorophenyl)-2-oxo-chromen-7-yl]oxypropanoyl]-N,N-dimethyl-piperidine-3-carboxamide] | 20 to 100
Cc1ccccc1-c1cc(=O)oc2cc(OC(C)C(=O)N3CCCC(C)(C(=O)O)C3)ccc12 (stereo not shown) [Compound 43, 3-methyl-1-[2-[4-(o-tolyl)-2-oxo-chromen-7-yl]oxypropanoyl]piperidine-3-carboxylic acid] | < 20
CC(Oc1ccc2c(-c3cccc(F)c3Cl)cc(=O)oc2c1)C(=O)N1CCCC(S(N)(=O)=O)C1 (stereo not shown) [Compound 52, 1-[2-[4-(2-chloro-3-fluoro-phenyl)-2-oxo-chromen-7-yl]oxypropanoyl]piperidine-3-sulfonamide] | < 20
CCOC(=O)C(C)Oc1ccc2c(-c3ccccc3Cl)cc(=O)oc2c1 (stereo not shown) [Compound 40, ethyl 2-[4-(2-chlorophenyl)-2-oxo-chromen-7-yl]oxypropanoate] | < 20
C[C@@H](Oc1ccc2c(-c3ccc(F)cc3Cl)cc(=O)oc2c1)C(=O)Nc1cncc(C(=O)O)c1 [Compound 148, 5-[[(2R)-2-[4-(2-chloro-4-fluoro-phenyl)-2-oxo-chromen-7-yl]oxypropanoyl]amino]pyridine-3-carboxylic acid] | < 20
CC(C)NC(=O)C(C)Oc1ccc2c(-c3ccc(F)cc3Cl)cc(=O)oc2c1 (stereo not shown) [Compound 65, 2-[4-(2-chloro-4-fluoro-phenyl)-2-oxo-chromen-7-yl]oxy-N-isopropyl-propanamide] | 20 to 100
CC(Oc1ccc2c(-c3ccccc3Cl)cc(=O)oc2c1)C(=O)N1CCC[C@@H](C(=O)O)C1 (stereo partly drawn) [Compound 46, (3R)-1-[2-[4-(2-chlorophenyl)-2-oxo-chromen-7-yl]oxypropanoyl]piperidine-3-carboxylic acid] | < 20
C[C@@H](Oc1ccc2c(-c3ccc(F)cc3Cl)cc(=O)oc2c1)C(=O)N1CCC[C@@H](C(=O)O)C1 [Compound 108, (3R)-1-[(2R)-2-[4-(2-chloro-4-fluoro-phenyl)-2-oxo-chromen-7-yl]oxypropanoyl]piperidine-3-carboxylic acid] | < 20
CCOC(=O)[C@H]1CCCN(C(=O)C(CC)Oc2ccc3c(-c4ccccc4Cl)cc(=O)oc3c2)C1 (stereo partly drawn) [Compound 109, ethyl (3S)-1-[2-[4-(2-chlorophenyl)-2-oxo-chromen-7-yl]oxybutanoyl]piperidine-3-carboxylate] | 20 to 100
CC(Oc1ccc2c(-c3ccccc3Cl)cc(=O)oc2c1)C(=O)N1CCCC(c2nn[nH]n2)C1 (stereo not shown) [Compound 39, 4-(2-chlorophenyl)-7-[1-methyl-2-oxo-2-[3-(2H-tetrazol-5-yl)-1-piperidyl]ethoxy]chromen-2-one] | < 20
Cc1ccccc1-c1cc(=O)oc2cc(OC(C)C(=O)O)ccc12 (stereo not shown) [Compound 97, 2-[4-(o-tolyl)-2-oxo-chromen-7-yl]oxypropanoic acid] | 100 to 1000
